Laboratory results reported in EP0423727B1, “Silver halide color photographic material containing colored coupler” (FUJI PHOTO FILM CO., LTD., priority 1989, dated 1991).

Assay: spectral absorption of the colored coupler in methanol
Assay type: physicochemical
Procedure: 10.1 g of compound c synthesized by the method described in U.S. Patent 4,138,258 was dissolved in 60 ml of N,N-dimethylformamide and 60 ml of methyl cellosolve. While cooling the resulting solution with ice, 4.3 ml of concentrated hydrochloric acid was added thereto and a solution of 1.84 g of sodium nitrite in 5 ml of water was added dropwise thereto to prepare a diazonium solution. 60 ml of methyl cellosolve and 20 ml of water were added to 7.8 g of the compound b and 8.2 g of sodium acetate. While stirring the resulting solution under ice cooling, the above diazonium solution was added dropwise thereto. After dropwise addition, the mixture was stirred for one hour and then at room temperature for 2 hours. The precipitated crystal was recovered by filtration, washed with water, dried and dispersed in 500 ml of methanol. The dispersion was heated to reflux for one hour and then allowed to stand to cool it. The crystal was recovered by filtration, washed with methanol and dried to give 13.6 g of the desired coupler (1) as a red crystal with a melting point of 269 to 272°C (decomposition). The structure of the compound was confirmed by ¹HNMR spectrum, mass spectrum and elemental analysis.
75 ml of methyl cellosolve and 26 ml of water were added to 10.1 g of the compound b and 10.7 g of sodium acetate. While stirring the resulting solution under ice cooling, the above diazonium solution was added dropwise thereto. After dropwise addition, the mixture was stirred for one hour and then at room temperature for 2 hours. The precipitated crystal was recovered by filtration and dispersed in 200 ml of methanol. A solution of 2.2 g of sodium hydroxide in 10 ml of water was added dropwise thereto. The mixture was stirred for 3 hours and neutralized with concentrated hydrochloric acid. The precipitated crystal was washed with water and then methanol and dried. The resulting crude crystal was purified from hot methanol in the same manner as in Synthesis Example 1 to give 14.8 g of the desired coupler (3) with a melting point of 246 to 251°C (decomposition). […]

Compound: CCCCCCCCC(CCCCCC)COCCCNC(=O)c1cc(OCCOc2ccc(N=Nc3c(C)c(C#N)c(=O)n(-c4ccccc4C(=O)O)c3O)cc2)c2ccccc2c1O (stereo not drawn) [(22)]
- spectral absorption characteristics as a yellow colored coupler: good
- maximum absorption wavelength (in methanol): 458.2 nm
- molecular extinction coefficient (in methanol): 42800
